What was measured:
[1] = Qualitative solubility screen of Tabernanthalog sorbate salt (Example 10, Experiment 2); format: physicochemical; conditions: Tabernanthalog sorbate salt (input Form A), one solvent per sample; for Assignment (wet pellet XRPD): product crystallised in solubility screen, centrifuged wet pellet; for Assignment (dry pellet XRPD): same pellets dried under reduced pressure
Protocol: The qualitative solubility screen was carried out to determine the range of solvents incorporated into future suspension equilibration panels. Products that crystallised were centrifuged and analysed as wet pellet by XRPD, dried under reduced pressure and re-analysed by XRPD, with selected samples further analysed by TGA and ^1H NMR spectroscopy.
If insoluble at 5 vol, the solvent quantity was increased to 10 vol, 15 vol and 20 vol of the respective solvent. The suspensions that occurred upon cooling down were centrifuged and the solvent wet pellets were analysed by XRPD.
The insoluble suspensions were additionally worked up for XRPD analysis. The resultant powder patterns were subsequently cross-referenced against the input supplied material.

[2] = Suspension equilibration of sorbate salt at 20 and 40° C. (Example 10, Experiments 3, 4, 9); format: physicochemical; conditions: one solvent per sample; for Observations (t = 1 d @ 20° C.) / Observations (t = 10 d @ 20° C.) / Observations (t = 1 d @ 40° C.) / Observations (t = 10 d @ 40° C.): sorbate salt Form A in 5 vol solvent; for Observations (t = 0 @ 20° C.) / Observations (t = 0 @ 40° C.): sorbate salt Form A, ca. 50 mg in 5 vol solvent; for XRPD (IPC, 6 d, wet): moist pellet after 6 d; for XRPD (post oven dried): pellet after oven drying
Protocol: The purpose of this panel is to determine if Form A evolves into a supra-ordinate form. The companion panel at 40° C. set-point is in place to detect enantiotropic behaviour via different relative proportions in different solvents. XRPD data of the moist pellets obtained from the suspension equilibration study at 20° C.
The relevant solvent (5 vol) was added to the appropriate vial and the suspensions were stirred and warmed to the predetermined temperature with stirring. […]

[3] = suspension equilibration at 20° C.
[4] = suspension equilibration at 40° C.

CC=CC=CC(=O)O.COc1ccc2c3c([nH]c2c1)CCN(C)CC3.O
Assignment (wet pellet XRPD) [1]: Pattern #1
Assignment (dry pellet XRPD) [1]: Converted into Form A

COc1ccc2c3c([nH]c2c1)CCN(C)CC3.O=C(O)/C=C/C(=O)O [Experiment 2-Sample C1]
Assignment (wet pellet XRPD) [1]: Form A
Assignment (dry pellet XRPD) [1]: Form A

COc1ccc2c3c([nH]c2c1)CCN(C)CC3 [Experiment 2-Sample D1]
Assignment (wet pellet XRPD) [1]: Form A
Assignment (wet pellet XRPD) ([1]; listed as Experiment 2-Sample E1): Form A + split reflections 5.90º,
Assignment (dry pellet XRPD) [1]: Form A

CC=CC=CC(=O)O.COc1ccc2c3c([nH]c2c1)CCN(C)CC3 [Experiment 2-Sample G1]
Assignment (wet pellet XRPD) [1]: Form A
Assignment (dry pellet XRPD) [1]: Form A

CC=CC=CC(=O)O.COc1ccc2c3c([nH]c2c1)CCN(C)CC3 [Experiment 2-Sample H1]
Assignment (wet pellet XRPD) [1]: Form A + new shoulders
Assignment (dry pellet XRPD) [1]: Form A + new shoulders

CC=CC=CC(=O)O.COc1ccc2c3c([nH]c2c1)CCN(C)CC3 [Experiment 2-Sample I1]
Assignment (wet pellet XRPD) [1]: Oiled

CC=CC=CC(=O)O.COc1ccc2c3c([nH]c2c1)CCN(C)CC3 [Experiment 2-Sample J1]
Assignment (wet pellet XRPD) [1]: Form A, some shift of d-spacings
Assignment (dry pellet XRPD) [1]: Form A

CC=CC=CC(=O)O.COc1ccc2c3c([nH]c2c1)CCN(C)CC3 [Experiment 2-Sample L1]
Assignment (wet pellet XRPD) [1]: Form A
Assignment (dry pellet XRPD) [1]: Form A

CC=CC=CC(=O)O.COc1ccc2c3c([nH]c2c1)CCN(C)CC3 [Experiment 2-Sample M1]
Assignment (wet pellet XRPD) [1]: Form A + shoulder 22.89º 2
Assignment (dry pellet XRPD) [1]: Form A + new shoulder

C/C=C/C=C/C(=O)O.COc1ccc2c3c([nH]c2c1)CCN(C)CC3 [Experiment 2-Sample N1]
Assignment (wet pellet XRPD) [1]: Form A + split reflections
Assignment (dry pellet XRPD) [1]: Form A

CC=CC=CC(=O)O.COc1ccc2c3c([nH]c2c1)CCN(C)CC3 [Experiment 2-Sample O1]
Assignment (wet pellet XRPD) [1]: Form A + split reflections
Assignment (dry pellet XRPD) [1]: Form A

CC=CC=CC(=O)O.COc1ccc2c3c([nH]c2c1)CCN(C)CC3 [Experiment 2-Sample P1]
Assignment (wet pellet XRPD) [1]: Form A
Assignment (dry pellet XRPD) [1]: Form A

CC=CC=CC(=O)O.COc1ccc2c3c([nH]c2c1)CCN(C)CC3 [Experiment 2-Sample Q1]
Assignment (wet pellet XRPD) [1]: Form A + new shoulders
Assignment (dry pellet XRPD) [1]: Form A

CC=CC=CC(=O)O.COc1ccc2c3c([nH]c2c1)CCN(C)CC3 [Experiment 2-Sample R1]
Assignment (wet pellet XRPD) [1]: Form A
Assignment (dry pellet XRPD) [1]: Form A

CC=CC=CC(=O)O.COc1ccc2c3c([nH]c2c1)CCN(C)CC3 [Experiment 3-Sample B]
Observations (t = 1 d @ 20° C.) [2]: Suspension
Observations (t = 10 d @ 20° C.) [2]: Suspension
Observations (t = 0 @ 20° C.) [2]: Suspension
XRPD (IPC, 6 d, wet) [2, 3]: Form A
XRPD (post oven dried) [2, 3]: Form A

C/C=C/C=C/C(=O)O.COc1ccc2c3c([nH]c2c1)CCN(C)CC3 [Experiment 3-Sample C]
Observations (t = 1 d @ 20° C.) [2]: Suspension
Observations (t = 10 d @ 20° C.) [2]: Suspension
Observations (t = 0 @ 20° C.) [2]: Suspension
XRPD (IPC, 6 d, wet) [2, 3]: Form A
XRPD (post oven dried) [2, 3]: Form A

CC=CC=CC(=O)O.COc1ccc2c3c([nH]c2c1)CCN(C)CC3 [Experiment 3-Sample F]
Observations (t = 1 d @ 20° C.) [2]: Suspension
Observations (t = 10 d @ 20° C.) [2]: Suspension
Observations (t = 0 @ 20° C.) [2]: Suspension
XRPD (IPC, 6 d, wet) [2, 3]: Form A
XRPD (post oven dried) [2, 3]: Form A

CC=CC=CC(=O)O.COc1ccc2c3c([nH]c2c1)CCN(C)CC3 [Experiment 3-Sample L]
Observations (t = 1 d @ 20° C.) [2]: Suspension
Observations (t = 10 d @ 20° C.) [2]: Suspension
Observations (t = 0 @ 20° C.) [2]: Suspension
XRPD (IPC, 6 d, wet) [2, 3]: Form A
XRPD (post oven dried) [2, 3]: Form A

CC=CC=CC(=O)O.COc1ccc2c3c([nH]c2c1)CCN(C)CC3 [Experiment 3-Sample M]
Observations (t = 1 d @ 20° C.) [2]: Suspension
Observations (t = 10 d @ 20° C.) [2]: Suspension
Observations (t = 0 @ 20° C.) [2]: Suspension
XRPD (IPC, 6 d, wet) [2, 3]: Form A
XRPD (post oven dried) [2, 3]: Form A

CC=CC=CC(=O)O.COc1ccc2c3c([nH]c2c1)CCN(C)CC3 [Experiment 3-Sample N]
Observations (t = 1 d @ 20° C.) [2]: Suspension
Observations (t = 10 d @ 20° C.) [2]: Suspension
Observations (t = 0 @ 20° C.) [2]: Suspension
XRPD (IPC, 6 d, wet) [2, 3]: Form A
XRPD (post oven dried) [2, 3]: Form A

CC=CC=CC(=O)O.COc1ccc2c3c([nH]c2c1)CCN(C)CC3 [Experiment 3-Sample O]
Observations (t = 1 d @ 20° C.) [2]: Suspension
Observations (t = 10 d @ 20° C.) [2]: Suspension
Observations (t = 0 @ 20° C.) [2]: Suspension
XRPD (IPC, 6 d, wet) [2, 3]: Form A
XRPD (post oven dried) [2, 3]: Form A

CC=CC=CC(=O)O.COc1ccc2c3c([nH]c2c1)CCN(C)CC3 [Experiment 3-Sample R]
Observations (t = 1 d @ 20° C.) [2]: Suspension
Observations (t = 10 d @ 20° C.) [2]: Suspension
Observations (t = 0 @ 20° C.) [2]: Suspension
XRPD (IPC, 6 d, wet) [2, 3]: Pattern #2
XRPD (post oven dried) [2, 3]: Form A

CC=CC=CC(=O)O.COc1ccc2c3c([nH]c2c1)CCN(C)CC3 [Experiment 3-Sample S]
Observations (t = 1 d @ 20° C.) [2]: Solution
Observations (t = 0 @ 20° C.) [2]: Solution

CC=CC=CC(=O)O.COc1ccc2c3c([nH]c2c1)CCN(C)CC3 [Experiment 3-Sample T]
Observations (t = 1 d @ 20° C.) [2]: Solution
Observations (t = 10 d @ 20° C.) [2]: Solution
Observations (t = 0 @ 20° C.) [2]: Solution

C/C=C/C=C/C(=O)O.COc1ccc2c3c([nH]c2c1)CCN(C)CC3 [Experiment 4-Sample A]
Observations (t = 1 d @ 40° C.) [2]: Suspension
Observations (t = 10 d @ 40° C.) [2]: Suspension
Observations (t = 0 @ 40° C.) [2]: Suspension
XRPD (IPC, 6 d, wet) [2, 4]: Form A
XRPD (post oven dried) [2, 4]: Form A

C/C=C/C=C/C(=O)O.COc1ccc2c3c([nH]c2c1)CCN(C)CC3 [Experiment 4-Sample B]
Observations (t = 1 d @ 40° C.) [2]: Suspension
Observations (t = 10 d @ 40° C.) [2]: Suspension
Observations (t = 0 @ 40° C.) [2]: Suspension
XRPD (IPC, 6 d, wet) [2, 4]: Form A
XRPD (post oven dried) [2, 4]: Form A

C/C=C/C=C/C(=O)O.COc1ccc2c3c([nH]c2c1)CCN(C)CC3 [Experiment 4-Sample C]
Observations (t = 1 d @ 40° C.) [2]: Suspension
Observations (t = 10 d @ 40° C.) [2]: Suspension
Observations (t = 0 @ 40° C.) [2]: Suspension
XRPD (IPC, 6 d, wet) [2, 4]: Form A
XRPD (post oven dried) [2, 4]: Form A

CC=CC=CC(=O)O.COc1ccc2c3c([nH]c2c1)CCN(C)CC3 [Experiment 4-Sample D]
Observations (t = 1 d @ 40° C.) [2]: Suspension
Observations (t = 10 d @ 40° C.) [2]: Suspension
Observations (t = 0 @ 40° C.) [2]: Suspension
XRPD (IPC, 6 d, wet) [2, 4]: Form A
XRPD (post oven dried) [2, 4]: Form A

C/C=C/C=C/C(=O)O.COc1ccc2c3c([nH]c2c1)CCN(C)CC3 [Experiment 4-Sample E]
Observations (t = 1 d @ 40° C.) [2]: Solution
Observations (t = 0 @ 40° C.) [2]: Partial
XRPD (IPC, 6 d, wet) [2, 4]: Pattern #5

CC=CC=CC(=O)O.COc1ccc2c3c([nH]c2c1)CCN(C)CC3 [Experiment 4-Sample F]
Observations (t = 1 d @ 40° C.) [2]: Partial
Observations (t = 0 @ 40° C.) [2]: Partial
XRPD (IPC, 6 d, wet) [2, 4]: Form A
XRPD (post oven dried) [2, 4]: Form A

CC=CC=CC(=O)O.COc1ccc2c3c([nH]c2c1)CCN(C)CC3 [Experiment 4-Sample G]
Observations (t = 1 d @ 40° C.) [2]: Suspension
Observations (t = 10 d @ 40° C.) [2]: Suspension
Observations (t = 0 @ 40° C.) [2]: Suspension
XRPD (IPC, 6 d, wet) [2, 4]: Form A
XRPD (post oven dried) [2, 4]: Form A

C/C=C/C=C/C(=O)O.COc1ccc2c3c([nH]c2c1)CCN(C)CC3 [Experiment 4-Sample H]
Observations (t = 1 d @ 40° C.) [2]: Suspension
Observations (t = 10 d @ 40° C.) [2]: Suspension
Observations (t = 0 @ 40° C.) [2]: Suspension
XRPD (IPC, 6 d, wet) [2, 4]: Pattern #3
XRPD (post oven dried) [2, 4]: Form A

CC=CC=CC(=O)O.COc1ccc2c3c([nH]c2c1)CCN(C)CC3 [Experiment 4-Sample I]
Observations (t = 1 d @ 40° C.) [2]: Suspension
Observations (t = 10 d @ 40° C.) [2]: Suspension
Observations (t = 0 @ 40° C.) [2]: Suspension
XRPD (IPC, 6 d, wet) [2, 4]: Form A
XRPD (post oven dried) [2, 4]: Form A

CC=CC=CC(=O)O.COc1ccc2c3c([nH]c2c1)CCN(C)CC3 [Experiment 4-Sample J]
Observations (t = 1 d @ 40° C.) [2]: Suspension
Observations (t = 10 d @ 40° C.) [2]: Suspension
Observations (t = 0 @ 40° C.) [2]: Suspension
XRPD (IPC, 6 d, wet) [2, 4]: Form A
XRPD (post oven dried) [2, 4]: Form A

Reference: patent US20230257385A1, “SALT AND SOLID FORMS OF TABERNANTHALOG” (priority 2021, published 2023)
